Data set [1] has as its system RAW 264.7 cells. Briefly: Nitrite quantification (Griess) in LPS stimulated macrophages. It is filed as cell-based, mouse. Particulars: for CONCENTRATION OF NITRITE μM ± SD: RAW 264.7 + LPS (200 ng/ml) + 10 μM compound, 24 h, LPS + DMSO control 14.560, basal 0.782. How it is done:
NO2^− accumulation was used as an indicator of Nitric Oxide (NO) production in the medium as described previously (Green et al., 1982 Anal Biochem 126, 131-138). […] The isolated supernatants were mixed with an equal volume of Griess reagent (1% sulfanilamide, 0.1% naphthylenediamine dihydrochloride, and 2% phosphoric acid) and incubated at room temperature for 15 min. NaNO2 was used to generate a standard curve, and nitrite production was determined by measuring the optical density at 540 nm.
To estimate the anti-inflammatory effects of all the synthetic molecules listed in this study, we measured the accumulation of nitrite, the stable metabolite of NO, in the culture media using Griess reagent.
To investigate the effect of CAMVE on NO production, we measured the accumulation of nitrite, the stable metabolite of NO, in the culture media using Griess reagent. To investigate the effect of CAMVE on NO production, Raw 264.7 cells, pretreated with indicated concentrations of CAMVE for 1 h were incubated with LPS (250 ng/ml) for 24 h.
In general terms: Griess reagent forms a coloured azo dye with nitrite.

The subject of data set [2] is Jurkat cells. In words: Cell cycle analysis (PI, flow cytometry), Jurkat. It is filed as cell-based, human. The settings on record: for cell cycle distribution with time: 100 nM and 500 nM. How it is done: (§1) Cells (log phase culture) were treated with vehicles alone (similar volumes of DMSO) or with the compound (various concentrations) to be tested for 24 h. Untreated cells were also included in this experiment for comparison. After treatments, the cells were harvested and washed with cold EDTA/PBS (5 mmol/L). Cells were then resuspended in cold EDTA/PBS (300 μl) and 100% chilled ethanol (700 μl), vortexed, and incubated at room temperature for 1 h. Samples were centrifuged at 200×g for 5 minutes and the supernatant was removed. A solution containing propidium iodide (100 μg/ml) and RNase A (1 mg/ml) was added to the samples and incubated for 1 h at room temperature. Samples were then transferred to 12×75 mm polystyrene tubes and analyzed on flow cytometer. Flow cytometry analyses were done on FACSCalibur (Becton Dickinson, San Jose, Calif.) and data were analyzed using CellQuest analysis software.
as §1, with “Cells (log phase culture) were treated with vehicles alone (similar volumes of DMSO) or with the compound (various concentrations) to be tested for 24 h.” left out, “PBS.” for “EDTA/PBS (5 mmol/L).”, “PBS” for “EDTA/PBS”
In general terms: In flow cytometry, cells or beads pass a laser one at a time.

The subject of data set [3] is Jurkat cells. Briefly: Cytotoxicity assay (MTT), Jurkat. It is filed as cell-based, human. On the procedure:
FIG. 8: CAMVE potentiates apoptosis induced by TNF or chemotherapeutic agents. A1. Jurkat cells were incubated at 37° C. with TNF, in the presence and absence of 10 μM of CAMVE for 72 h and the viable cells were assayed using MTT reagent. The results are shown as the mean±S.D. from triplicate culture. A2. Jurkat cells (1×10^6 cells/ml) were pretreated with CAMVE for 3 h as indicated and incubated with TNF for 24 hrs, and PARP cleavage was determined by FACS analysis as described in the “Materials and Methods”. M2 gated population represents the percentage apoptotic population B. SA-LPS/Jkt cells pretreated with 10 μM of CAMVE for 3 h, were treated with 1 μM of cis-plastin, doxorubicin, taxol or vincristine for 72 h. The cytotoxicity was then assayed by MTT method. Results are shown as the mean±S.D. from triplicate samples.
FIG. 11: Dose response for compound 27 induced loss of cell viability and cell proliferation in Jurkat cell line. […] Error bars indicate±S.D.
Cytotoxicity was assayed by the modified tetrazolium salt 3-(4,5-dimethylthiazol-2-yl)-2,5-diphenyltetrazolium bromide (MTT) assay as described by Plumb, J A et al. (Cancer Res. 1989 Aug. 15; 49(16):4435-4440). […]

Data set [4] deals with TNFα. In words: Bioassay of TNFα production by LPS activated RAW 264.7 macrophages using L929 cell line. The format is cell-based. Particulars: Mus musculus; L929 + ActD + supernatant from LPS + compound (10 μM) treated RAW 264.7 macrophage; crystal violet; mean ± S.D. of triplicate; read-out: PERCENTAGE CELL SURVIVAL ± S.D. On the procedure:
Measurement of TNFα in culture medium or supernatant is performed using immunoassay and bioassay. Bioassay was used for the measurement of bioactive TNFα production in the culture medium.
TNFα secretion into the medium by LPS activated macrophage was assayed using L929 tumorigenic murine cells (ATCC) specifically sensitive to TNFα. L929 cell cytotoxicity assay was performed by a modified method (Sano et al., The Journal of Immunology, 1999, 163: 387-395 The Journal of Immunology, 1999, 163: 387-395) based on that described elsewhere (Flick D A, Gifford G E. J Immunol Methods. 1984 Mar. 30; 68(1-2): 167-175). Briefly, the L929 cells (log phase cells) were seeded into a flat bottom 96 well plates (6×10^4/well) in 100 μl volume of RPMI 1640 containing 2% FCS and incubated overnight at 37° C. in a 5% CO2 incubator. A working dilution of the culture supernatant collected from LPS (200 ng/ml) activated macrophage in a volume of 100 μl per well was first tested to obtain 70-75% cytotoxicity equivalent to […] of recombinant TNFα standard to the TNFα sensitive L929 cell line. After incubation of the L929 cells appropriate fixed dilution of the culture supernatant collected from the compound treated (10 μM) wells, containing the LPS stimulated macrophages in a volume of 100 μl with 2 μg/ml Actinomycin D (Act D) was taken and added to the L929 cells and the cells were incubated at room temperature for 15 min followed by 18 h incubation at 37° C. overnight with 5% CO2. On the next day the medium was removed and the cells were stained with 0.2% (w/v) crystal violet for 10 minutes. The wells were gently rinsed with water, and 33% acetic acid (100 μl/well) was added to extract the retained crystal violet. The absorbance at 570 nm was finally measured.
Tumor necrosis factor-α can cause direct cytotoxicity to the lung fibroblast cell line (L929). Bioassay of TNF α is designated on the basis of this cytotoxicity of TNF α, which can be used for the identification of murine TNF α activity in tissue culture supernatants. Culture supernatant collected from the synthetic molecules treated well containing LPS stimulated macrophage modulated the extent of cytotoxicity to the L929 cells (see Table 1).

Each structure is given as a SMILES string.

As for `COc1cc([C@@H]2Oc3c(OC)cc(/C=C/C(=O)O)cc3[C@H]2C(=O)O)ccc1O` [compound 27, 5-[(E)-2-carboxyvinyl]-2β-(4-hydroxy-3-methoxyphenyl)-7-methoxy-2,3-dihydro-1-benzofuran-3α-carboxylic acid], the “CONCENTRATION OF NITRITE μM ± SD” value in data set [1] stood at 5.027 ± 0.200 µM. Besides, in data set [2] (50 nM (data not shown)), the G2/M population result is “no significant increase in G2/M population”. For the same compound, the “cell cycle distribution with time” value is “significant decrease in the G2/M population” in data set [2] (48 and 72 h); “accumulated in G2/M after 24 h with a significant decrease in the G1 and S phase populations” in data set [2] (24 h). Moreover, the “increase of cells in the G2/M phase” value in data set [2] (100 nM, 24 h) is listed as around 50%. Moreover, the “G2/M and sub G1 population” value in data set [2] (concentration higher than 100 nM) was “further increase in both G2/M and sub G1 population”. For the same compound, the GI50 in data set [3] (Homo sapiens, Jurkat, MTT, 24 h and 48 h, read-out: GI50 (concentration causing 50% growth inhibition)) is around 100 nM. For the same compound, the viability at 10 µM in data set [4] came to 46.5 ± 1.02%.

For `COC(=O)c1ccc(OC(=O)/C=C/c2ccc(O)c(O)c2)c(OC)c1` [compound 1, Methyl 4-{[(2E)-3-(3,4-dihydroxyphenyl)prop-2-enoyl]oxy}-3-methoxybenzoate], in data set [1], the “CONCENTRATION OF NITRITE μM ± SD” value was 1.849 ± 0.214 µM. In data set [1] (Raw 264.7 pretreated 1 h, LPS 250 ng/ml 24 h), the “LPS induced nitrite production” value is recorded as “inhibited by CAMVE treatment in a dose-dependent manner”. The cell cycle distribution result in data set [2] (5 μM, 24 h) is “significant increase of cells in the G1 and compensatory decrease in the S phase”. Also, in data set [3] (SA-LPS (100 ng/ml) activated Jurkat, 10 μM CAMVE 3 h, then 1 μM cis-platin, doxorubicin, taxol or vincristine 72 h), the “cytotoxicity induced by chemotherapeutic agents (MTT)” value is on record as “significantly enhanced by CAMVE pretreatment”. In addition, in data set [4], the viability at 10 µM was 73.2 ± 1.77%.

These data come from patent US20100168228A1, “NOVEL CHEMOTHERAPEUTIC AGENTS AGAINST INFLAMMATION AND CANCER” (RELIANCE LIFE SCIENCES PVT. LTD., priority 2006, published 2010).
